From PMC3378573, “TRPA1 Is a Polyunsaturated Fatty Acid Sensor in Mammals” (PLoS ONE, 2012)

Tests used:
Type in all cases: cell-based
TRPA1 [1] = biological target: TRPA1 (Mus musculus, UniProt Q8BLA8); assay: whole-cell patch clamp of native TRPA1 in STC-1 cells (-60 mV)
Excerpt: whole-cell patch clamp of native TRPA1 in STC-1 cells (-60 mV) on TRPA1 | Concentration-response curve for AITC evoked currents in STC-1 cells

TRPA1 [2] = biological target: T1, TRPA1 (Rattus norvegicus, UniProt Q6RI86); assay: whole-cell patch clamp in transfected HEK293 cells, […] fatty acid
T1 sequence (Q6RI86 whole entry): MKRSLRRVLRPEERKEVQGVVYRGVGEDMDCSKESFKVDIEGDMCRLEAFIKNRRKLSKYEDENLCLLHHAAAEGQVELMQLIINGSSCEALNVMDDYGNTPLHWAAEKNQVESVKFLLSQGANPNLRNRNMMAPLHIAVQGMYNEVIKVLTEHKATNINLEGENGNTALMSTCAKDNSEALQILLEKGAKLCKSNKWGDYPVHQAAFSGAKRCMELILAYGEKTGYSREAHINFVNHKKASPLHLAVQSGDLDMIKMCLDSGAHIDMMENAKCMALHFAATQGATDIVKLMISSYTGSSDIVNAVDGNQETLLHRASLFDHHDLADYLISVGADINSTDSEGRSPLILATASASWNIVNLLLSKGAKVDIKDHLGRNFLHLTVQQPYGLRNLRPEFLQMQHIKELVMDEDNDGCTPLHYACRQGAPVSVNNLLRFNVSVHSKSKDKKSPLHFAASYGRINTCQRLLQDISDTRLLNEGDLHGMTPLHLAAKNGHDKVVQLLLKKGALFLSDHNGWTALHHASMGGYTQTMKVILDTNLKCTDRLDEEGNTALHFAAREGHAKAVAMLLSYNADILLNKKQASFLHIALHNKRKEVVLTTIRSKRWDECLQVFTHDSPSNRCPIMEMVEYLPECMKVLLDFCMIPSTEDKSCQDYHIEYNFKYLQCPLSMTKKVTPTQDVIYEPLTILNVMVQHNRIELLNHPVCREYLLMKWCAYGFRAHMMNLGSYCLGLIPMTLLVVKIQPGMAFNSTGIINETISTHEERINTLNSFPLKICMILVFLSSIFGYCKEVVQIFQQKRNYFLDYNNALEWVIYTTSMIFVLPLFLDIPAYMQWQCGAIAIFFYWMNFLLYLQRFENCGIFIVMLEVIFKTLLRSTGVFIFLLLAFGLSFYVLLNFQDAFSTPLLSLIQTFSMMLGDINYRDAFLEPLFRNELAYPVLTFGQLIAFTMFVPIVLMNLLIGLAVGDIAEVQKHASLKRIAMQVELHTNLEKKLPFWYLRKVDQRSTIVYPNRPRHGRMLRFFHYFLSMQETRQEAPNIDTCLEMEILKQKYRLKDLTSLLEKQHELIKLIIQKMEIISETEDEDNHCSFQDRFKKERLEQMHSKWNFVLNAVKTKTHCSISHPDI

TRPA1 [3] = biological target: T1, TRPA1; assay: whole-cell patch clamp in transfected HEK293 cells (-60 mV), with NAC
TRPA1 [4] = biological target: T1, TRPA1; assay: patch clamp of native TRPA1 in RIN14B cells, block of DHA current at […]

Chain of TRPA1 (Mus musculus, UniProt Q8BLA8) (Q8BLA8 whole entry): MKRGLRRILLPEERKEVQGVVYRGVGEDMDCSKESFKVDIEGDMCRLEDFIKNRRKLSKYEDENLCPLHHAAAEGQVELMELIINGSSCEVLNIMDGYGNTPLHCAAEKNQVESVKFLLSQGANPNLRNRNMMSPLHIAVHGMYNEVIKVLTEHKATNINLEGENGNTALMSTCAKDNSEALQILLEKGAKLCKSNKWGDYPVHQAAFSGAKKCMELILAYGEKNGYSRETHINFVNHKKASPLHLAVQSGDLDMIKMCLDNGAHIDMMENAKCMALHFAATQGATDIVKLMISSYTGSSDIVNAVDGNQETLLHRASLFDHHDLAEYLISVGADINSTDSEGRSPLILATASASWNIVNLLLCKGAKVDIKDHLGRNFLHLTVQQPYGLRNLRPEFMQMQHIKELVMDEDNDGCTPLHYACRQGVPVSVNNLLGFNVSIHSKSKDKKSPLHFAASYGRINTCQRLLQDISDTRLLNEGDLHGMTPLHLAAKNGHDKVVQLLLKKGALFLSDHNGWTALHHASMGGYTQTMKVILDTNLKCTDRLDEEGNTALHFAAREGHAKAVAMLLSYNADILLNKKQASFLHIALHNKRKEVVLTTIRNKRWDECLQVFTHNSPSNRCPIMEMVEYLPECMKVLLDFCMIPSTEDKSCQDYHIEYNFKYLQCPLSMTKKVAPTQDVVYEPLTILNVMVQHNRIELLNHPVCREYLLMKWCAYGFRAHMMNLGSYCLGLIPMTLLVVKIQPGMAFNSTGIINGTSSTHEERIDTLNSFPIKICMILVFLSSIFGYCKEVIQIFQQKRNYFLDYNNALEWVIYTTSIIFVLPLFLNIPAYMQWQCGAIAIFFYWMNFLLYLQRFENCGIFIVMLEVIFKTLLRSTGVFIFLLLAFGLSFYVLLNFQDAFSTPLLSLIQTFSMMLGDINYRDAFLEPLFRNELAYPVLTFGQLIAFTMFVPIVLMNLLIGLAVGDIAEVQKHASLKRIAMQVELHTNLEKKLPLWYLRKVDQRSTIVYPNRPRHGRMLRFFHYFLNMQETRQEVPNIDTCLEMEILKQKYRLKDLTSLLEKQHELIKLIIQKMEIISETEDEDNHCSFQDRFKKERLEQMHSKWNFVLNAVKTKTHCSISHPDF

C=CCN=C=S [AITC, allyl isothiocyanate]
EC50 (TRPA1 [1]): 29 µM

CCCCC/C=C\C/C=C\C/C=C\C/C=C\CCCC(=O)O [AA, arachidonic acid]
whole-cell patch clamp in transfected HEK293 cells, 100 μM fatty acid (TRPA1 [2]): Thus, AA, EPA and DHA possess approximate equivalent efficacy.

CC/C=C\C/C=C\C/C=C\C/C=C\C/C=C\C/C=C\CCC(=O)O [DHA, docosahexaenoic acid]
EC50 (TRPA1 [3]): 41 µM

CC(C)c1ccc(NC(=O)Cn2cnc3c2c(=O)n(C)c(=O)n3C)cc1 [HC030031]
patch clamp of native TRPA1 in RIN14B cells, block of DHA current at 50 μM (TRPA1 [4]): outwardly-rectified conductance in voltage-clamped STC-1 and RIN14B cells, that is inhibited by the TRPA1 antagonist, HC030031
